Measured values as given in patent US8852632B2, “Pharmaceutical formulation containing a release rate controlling composition” (Merck Sharp & Dohme Corp., priority 2004, dated 2014).

Experiment: Hygroscopicity (vapor sorption analysis)
Format: physicochemical
Experimental: Hygroscopicity data was obtained on a VTI Symmetrical Vapor Sorption Analyzer Model SGA-1. Data was collected at room temperature from 5-95% relative humidity and back, 5% relative humidity change per step. Equilibrium conditions were 0.01 weight percent change in 5 minutes with a maximum equilibration time of 180 minutes. […] When equilibrated back down to 5% RH, the material returned back to approximately its dry weight.

## Cc1nnc(C(=O)NC(C)(C)c2nc(C(=O)NCc3ccc(F)cc3)c(O)c(=O)n2C)o1
After cycling 5-95% relative humidity and back
  XRPD analysis after the hygroscopicity experiment (phase stability): had not changed phases
Equilibrated at 95% RH at 25° C.
  weight increase (hygroscopicity): 1.8%
